Data on one compound can be found in publication PMC7957578, “N-(1,3,4-Oxadiazol-2-yl)Benzamides as Antibacterial Agents against Neisseria gonorrhoeae” (International Journal of Molecular Sciences, 2021).

In series [1] the test system is tested bacterial strains (Table 3). As to the kind of experiment: MBC versus MIC against the panel of Gram-positive and Gram-negative pathogens. Format: cell-based. The following applies: MBCs more than three-fold higher than MICs, strains of Table 3. Here is the method:
While the focus of these new N-(1,3,4-oxadiazol-2-yl)benzamides is towards N. gonorrhoeae, we proceeded to test their activity against other Gram-positive and Gram-negative pathogens. Intriguingly, HSGN-235, HSGN-237, and HSGN-238 had potent activity against the tested Gram-positive bacterial pathogens. For instance, all three compounds had potent activity against the staphylococcal strains, with MICs ranging from 0.25 to 1 µg/mL (Table 3). Furthermore, HSGN-235, HSGN-237, and HSGN-238 maintained potent activity against clinically relevant Gram-positive bacterial pathogens such as vancomycin-resistant enterococci (VRE) and Listeria monocytogenes (Table 3). Additionally, we moved to test if HSGN-235, HSGN-237, and HSGN-238 were active against other Gram-negative bacterial pathogens. […] This lack of activity against Gram-negative bacteria appears to be due to HSGN-235, HSGN-237, and HSGN-238 being a substrate for efflux.
The minimum inhibitory concentrations (MICs) of the tested compounds and control drugs, linezolid, vancomycin, and gentamicin, were determined using the broth microdilution method according to the guidelines outlined by the Clinical and Laboratory Standards Institute (CLSI) against clinically relevant bacterial (Staphylococcus aureus, MRSA, Escherichia coli, Enterococcus faecalis and Enterococcus faecium strains. S. aureus, MRSA, E. coli, Enterococcus faecalis and Enterococcus faecium were grown aerobically overnight on tryptone soy agar (TSA) plates at 37° C. Afterwards, a bacterial solution equivalent to 0.5 McFarland standard was prepared and diluted in cation-adjusted Mueller–Hinton broth (CAMHB) (for S. aureus, MRSA, and E. coli) to achieve a bacterial concentration of about 5 × 10^5 CFU/mL. Enterococcus faecalis and Enterococcus faecium 0.5 McFarland standard solution was diluted in tryptone soy broth (TSB) to achieve a bacterial concentration of about 5 × 10^5 CFU/mL. Compounds and control drugs were added in the first row of 96-well plates and serially diluted with the corresponding media containing bacteria. […]

The test system of series [2] is Caco-2 bilayers. As to the kind of experiment: Caco-2 bidirectional permeability assay. Format: in vitro ADME, human. The note with it: Caco-2 permeability classification. An excerpt:
(§1) Oral bioavailability is a highly important consideration when developing bioactive molecules as therapeutic agents. A critical factor of oral bioavailability is human intestinal absorption. The Caco-2 bidirectional permeability assay is the most widely used in vitro model for predicting if a bioactive molecule can have adequate systemic absorption. Thus, we selected HSGN-238 to act as a model to analyze the drug-like properties of newly synthesized N-(1,3,4-oxadiazol-2-yl)benzamides.
(§2) Assay and data analysis were performed by Eurofins Panlabs (MO, USA) according to a previously reported protocol. The apparent permeability coefficient (Papp) of the tested agents was calculated using the equation below: Papp(cm/s)=VR∗CR,end/Δt∗1/A∗(CD,mid−CR,mid), where VR is the volume of the receiver chamber. CR,end is the concentration of the test compound in the receiver chamber at the end time point, Δt is the incubation time, and A is the surface area of the cell monolayer. CD,mid is the calculated mid-point concentration of the test compound in the donor side, which is the mean value of the donor concentration at 0 minutes and the donor concentration at the end time point. CR,mid is the mid-point concentration of the test compound in the receiver side, which is one half of the receiver concentration at the end time point. Concentrations of the test compound were expressed as peak areas of the test compound.

The nature of series [3]: Caco-2 bidirectional permeability assay. The note with it: human, Caco-2. Format: in vitro ADME, human.
Description: as §1, §2

In series [4] the test system is N. gonorrhoeae. Nature of the series: MIC against N. gonorrhoeae in presence of fetal bovine serum. Format: cell-based. The note with it: Neisseria gonorrhoeae, 24 h.

For the compound `O=C(Nc1nnc(-c2ccc(Cl)s2)o1)c1ccc(OC(F)(F)F)cc1` [HSGN-238, N-(5-(5-Chlorothiophen-2-yl)-1,3,4-oxadiazol-2-yl)-4-(trifluoromethoxy)benzamide], the “type of activity from MBC versus MIC” value in series [1] is given as “bacteriostatic agents”. Also, in series [2], the “Notes (permeability class)” value is listed as “High Permeability”. The same compound showed a Papp A→B in series [3] (apical to basolateral) of 82.3 ×10⁻⁶ cm/s. Further, the basolateral-to-apical permeability (Papp B→A) in series [3] (basolateral to apical) is 32.9 ×10⁻⁶ cm/s. The minimal inhibitory concentration (MIC) in series [4] (1% FBS added to the media) worked out at 0.25 µg/mL; in series [4] (5% FBS added to the media) it was 1 µg/mL; in series [4] (10% FBS added to the media), 1 µg/mL.
